# Experimental data as given in patent US8623861B2, “Method of treating demyelination diseases” (priority 2006, dated 2014).
# Tests used:
# C57BL/6 mice [1] = details: all groups (con, que, cup, cup+que); data not shown
# Procedure: (§1) To test whether quetiapine can protect mouse brain from cuprizone-induced demyelination, 8-week old mice were fed a diet of milled LabDiet® rodent chow (PMI nutrition international LLC, Brentwood, Mo., USA) containing 0.2% cuprizone for 5 weeks (w/w) (Sigma-Aldrich, St. Louis, Mo., USA) as previously described (Morell et al., 1998). […] The study included the following 4 groups (6-8 animals/group): group 1: control, fed with regular chow (con); group 2: pre-administrated with quetiapine (10 mg/kg/day in drinking water) for 1 week, then followed by 5 weeks of quetiapine administration with normal diet (que); group 3: fed for 5 weeks on a cuprizone-containing diet (cup) with regular tap water for drinking; group 4: pre-administrated with quetiapine (10 mg/kg/day in drinking water) for 1 week, then followed by 5 weeks of quetiapine treatment with cuprizone administration (cup+que).
# (§2) To study the effect of quetiapine on the remyelination process, an additional two groups (6-8 animals/group) of mice were treated with 0.2% cuprizone in milled chow for 6 weeks, and then returned to a cuprizone-free diet (Matsushima and Morell, 2001). Upon resumption of the cuprizone-free diet, mice were fed with either vehicle (water) or quetiapine (10 mg/kg/day in water, que) for 2 weeks.
# rats = details: He et al., 2005; cited from earlier work
# PC 12 cell = details: serum withdrawal or addition of hydrogen peroxide, β-amyloid peptide or MPP+; cited from earlier work
# [2] = He et al., 2006; Martin et al., 2005; cited from earlier work
# BDNF = details: Xu et al., 2002; Luo et al., 2004; cited from earlier work
# C57BL/6 mice [3] = test system: C57BL/6 mice
# Procedure: as §1, §2
# At the end of their treatment period, mice were anaesthetized with pentobarbital sodium at 50 mg/kg and perfused intracardially with 0.01 M PBS followed by 4% paraformaldehyde in PBS, and the brains were post-fixated overnight in 4% paraformaldehyde. Brain tissues were then rinsed 3 times with 0.01 M PBS and cryoprotected in 30% sucrose at 4° C. for one day and frozen at −80° C. for immunostaining. Serial coronal sections were dissected between levels 1 to −1 mm bregma, as defined in the mouse brain atlas of Franklin and Paxinos (Franklin and Paxinos, 1997). Demyelination was evaluated in frozen sections (30 μm) of the corpus callosum using Luxol fast blue with periodic acid-Schiff reaction. Floating frozen sections (30 μm) were incubated with 0.3% of H2O2 in 0.01 M PBS for 30 min at room temperature (RT) for quenching endogenous peroxidase activity, then blocked with 10% goat serum/PBS or 10% rabbit serum (for MBP staining) for 1 hour at RT, and then incubated overnight with the primary antibody(s) diluted in the blocking solution. After rinsing, the sections were incubated with the appropriate biotin-conjugated secondary antibody (1:1000; Vector Laboratories, Burlingame, Calif.) for 1 hour at RT. Sections were then developed with the avidin biotin complex kit (Vector Laboratories, Burlingame, Calif.) and the antibodies were visualized with DAB chromogen (Sigma-Aldrich, St. Louis, Mo.).
# A goat polyclonal antibody directed against MBP (1:250; Santa Cruz Biotechnology, CA) was used to detect myelin. A rabbit anti-pi isoform of glutathione S-transferase (GST-pi, 1:500; Stressgen, Victoria, BC, Canada) was used as a marker for mature oligodendrocytes (Mason et al., 2004); Ness et al., 2005). The rabbit polyclonal NG2 antibody (1:200; Chemicon, Temecula, Calif.) was used as a marker for oligodendrocyte progenitors (Nishiyama et al., 1996).
# For GST-pi and NG2 quantification, three digital pictures from the coronal section from each animal (including the middle line and the two edges of the corpus callosum in each section) were examined. Cell counts are expressed as the mean number of positive cells counted in three coronal sections from two different areas, 500 μm apart, between 1 to −1 mm bregma, following the mouse brain atlas of Franklin and Paxinos (Franklin and Paxinos, 1997). Results are expressed as the average of at least 6 mice per group. For MBP staining analysis, three digital pictures from the coronal section (including cerebral cortex) of each animal were examined, at least 6 animals of each group.
# [4] = test system: neural progenitor cell cultures; details: in vitro
# C57BL/6 mice [5] = test system: C57BL/6 mice; remark: listed apart in the source
# Procedure: as §1, §2
# Immediately after the locomotor activity test, spatial working memory was assessed by recording spontaneous alternation behavior in a Y-maze comprised of three 30-cm compartments marked as A, B, and C arms. Spontaneous alternation behavior is based on the natural tendency of rodents to explore a novel environment. In a Y-maze, mice tend to explore the maze by systematically entering each arm. For efficient alternation, mice are required to know which arms have already been visited. Therefore, alternation behavior can be regarded as a measure involving spatial working memory. […] Each mouse was placed at the end of one arm and allowed to move freely through the maze during an 8-min period. The total number and series of arm entries were recorded visually. The number of overlapping entrance sequences (e.g., ABC, BCA) was defined as the number of alternations. The effect was calculated as the percentage of alternation according to the following formula: Percent alternation=(number of alternations)/(total number of arm entries-2)×100 (Wall et al., 2002). Total entries were scored as an index of ambulatory activity in the Y-maze, and mice showing scores below six entries would be excluded.
# [6] = 0.2% cuprizone 5 weeks with quetiapine co-administration vs. cuprizone alone
# [7] = quetiapine alone with normal diet vs. control
# [8] = 2 weeks of recovery from cuprizone, quetiapine 10 mg/kg/day in water vs. vehicle (water)
Compound,locomotor activity (C57BL/6 mice [1]),short- and long-term behavioral consequences of chronic dl-amphetamine (rats),PC 12 cell death (PC 12 cell),memory deficits induced by phencyclidine and kainic acid [2],expression of BDNF in rat hippocampus after immobilization stress (BDNF),loss of GST-pi+ mature oligodendrocytes in the corpus callosum (C57BL/6 mice [3]; 0.2% cuprizone 5 weeks with quetiapine co-administration),demyelination in LFB-PAS staining (C57BL/6 mice [3]; [6]),number of NG2+ cells within the demyelinated areas (C57BL/6 mice [3]; [6]),reduction of demyelination in MBP staining (C57BL/6 mice [3]; [6]) [%],"remyelination in demyelinated lesions (MBP and LFB-PAS) (C57BL/6 mice [3]; 2-week recovery from cuprizone, quetiapine vs. vehicle (water))","NG2+ cells after recovery (C57BL/6 mice [3]; 2 weeks recovery from cuprizone, quetiapine vs. water)","GST-pi+ mature oligodendrocytes during remyelination (C57BL/6 mice [3]; 2 weeks recovery from demyelination, quetiapine vs. water, +p<0.05 vs. water)","NG2+ cells, quetiapine alone (C57BL/6 mice [3]; quetiapine alone with normal diet)","GST-pi+ cells, quetiapine alone (C57BL/6 mice [3]; [7])","myelination (MBP staining), quetiapine alone (C57BL/6 mice [3]; [7])",proliferation and differentiation of oligodendrocytes [4],"total number of arm entries in Y-maze (C57BL/6 mice [5]; 0.2% cuprizone 5 weeks, co-administration of quetiapine 10 mg/kg/day p.o.)","impairment of spontaneous alternation behavior in the Y-maze (C57BL/6 mice [5]; 0.2% cuprizone 5 weeks, co-administration of quetiapine 10 mg/kg/day p.o., ++p<0.01 vs. cuprizone)",memory impairment in Y-maze during remyelination (C57BL/6 mice [5]; [8]),total arm entries in the Y-maze during remyelination (C57BL/6 mice [5]; [8])
OCCOCCN1CCN(C2=Nc3ccccc3Sc3ccccc32)CC1 [quetiapine],no significant difference among groups,modulate the short- and long-term behavioral consequences,reduce the PC 12 cell death,could reverse memory deficits,attenuate the immobilization stress-induced decrease in the expression of BDNF,did not reverse the loss of mature oligodendrocytes,showed the same trend as MBP staining,dramatically decreased the number of NG2+ cells,35,no difference between the vehicle (water) and quetiapine treatment on remyelination,had little effect on this change,dramatically increased,Few NG2+ cells were observed,had no difference,show no difference on myelination,promoted the proliferation and differentiation of oligodendrocytes,decreased the rise of the total number of arm entries induced by cuprizone,significantly attenuated the impairment of spontaneous alternation behavior,did not appear to improve memory impairment,did not appear to improve memory impairment or alter the total arm entries
Cc1nc2n(c(=O)c1CCN1CCC(c3noc4cc(F)ccc34)CC1)CCCC2 [risperidone],–,–,reduce the PC 12 cell death,–,–,–,–,–,–,–,–,–,–,–,–,–,–,–,–,–
